Experimental findings from patent US4855304A, “Dinucleoside pyrophosphates and pyrophosphate homologs as plant antivirals” (Repligen Corporation, priority 1985, dated 1989) are described below.

For assay [1], the system named is TMV (tobacco mosaic virus) replication in intact N. glutinosa plants. The experiment in a line: Antiviral activity in N. glutinosa intact plants, infectivity test (local lesions). Format: in vivo, tobacco mosaic virus; Nicotiana glutinosa. To be noted: for induced resistance to TMV infection in the non-treated half-leaf: 1 μM (10^-6 M). How it is done:
(§1) Nicotiana glutinosa and N. tabacum var. samsum plants were grown in potting medium in greenhouse conditions (25±3° C., and constant illumination). The plants were fertilized with a commercial fertilizer every two weeks. Plants were used at 5-8 leaf stage (Devash, Y., Biggs, S. and Sela, I. [1982] Science 216: 1415-1416; Devash, Y. et al. [1984] Jour. Biol. Chem. 259: 3482-3486).
The ability of the antiviral dinucleotides to inhibit TMV replication in intact N. glutinosa plants (containing N-gene for TMV localization) was determined by infectivity tests. Solutions containing 5 μg/ml TMV, 0.1 μg/ml carborundum, and antiviral dinucleotide were applied to 5 half-leaves of N. glutinosa. The opposite half-leaves served as controls and were inoculated with infecting solution containing TMV and carborundum but no dinucleotides. The infection was allowed to proceed 48 hr. Inhibition of TMV replication was calculated as the percent of local lesions produced in antiviral compound treated half-leaves, as compared to control half-leaves.

Assay [2] concerns TMV (tobacco mosaic virus) replication in TMV-infected tobacco leaf discs. Description: Antiviral activity in TMV-infected leaf discs (TMV content by ELISA). It counts as cell-based, tobacco mosaic virus; leaf discs of N. tabacum var. samsun. The note with it: for ng TMV/ml: control 550 (Table 4). How it is done:
Assays for antiviral activity in TMV-infected leaf discs were done using leaves of N. tabacum var. samsun in which TMV is systemically spread. Leaves were mechanically inoculated with purified TMV (5 μg/ml in 0.01M sodium phosphate buffer, pH 7.6, containing 0.1 g/ml of carborundum as an abrasive). Immediately after infection, leaf discs (6.5 mm diameter) were punched out of the inoculated leaves and placed in a beaker containing 0.01M sodium phosphate, pH 7.6.
selected at random from this common pool and placed onto separate petri dishes, each containing 18 ml of 10 mM 4-(2-hydroxyethyl)-1-piperazine ethanesulfonic acid (HEPES)-KOH, pH 7.05, 188 mg/L Na2 HPO4 --7H2 O. […] At the end of the 1 hr incubation, the buffer containing the antiviral dinucleotide was replaced by a buffer lacking the antiviral dinucleotide for another hr. The discs were then washed with 0.01M sodium phosphate, pH 7.6, and were allowed to incubate for an additional 72 hr in phosphate buffer (Devash, Y., Biggs, S. and Sela, I. [1982] Science 216: 1415-1416; Devash, Y. et al. [1984] J. Biol. Chem. 259: 3482-3486). The discs were homogenized in 0.01M sodiuM phosphate buffer, pH 7.6, and the TMV content was determined by enzyme-linked immunosorbent assay (ELISA) as described below.
(§2) The TMV content of the homogenates was determined by ELISA essentially by the method of Clark and Adams ([1977] J. Gen. Virol. 34: 475-483) but with the following order of layers on the microtiter plates.
(§3) (a) the γ-globulin fraction of a serum obtained from a chicken immunized against TMV was absorbed directly to the plate.
(§4) (b) The next layer was the tested sample (at various dilutions) or a series of purified TMV suspensions at known concentrations (calibration curve).
(§5) (c) The third layer was the γ-globulin from the serum of a TMV-immunized rabbit.
(§6) (d) The final layer was goat antibody to rabbit immunoglobulin G conjugated with alkaline phosphatase (Sigma). The release of phosphate from p-nitrophenyl phosphate due to the antibody-conjugated alkaline phosphatase was monitored spectrophotometrically with a Microplate reader (Dynatech Diagnostics, Inc. South Windham, ME) and was proportional to TMV concentration in a log linear manner for about two logs (<2 ng to>200 ng). (Devash, Y., Biggs, S. and Sela, I. [1982] Science 216: 1415-1416)
The γ-globulin fraction of serum obtained from chickens and rabbits immunized against TMV were generous gifts from Professor Ilan Sela, The Hebrew University of Jerusalem, Agriculture Faculty, Rehobot, Israel.
A general note: In an ELISA, binding on a coated surface is turned into a signal by an enzyme label.

For assay [3], the system named is TMV (tobacco mosaic virus) in N. tabacum plants. Description: Root application to N. tabacum intact plants (TMV content by ELISA). It counts as in vivo, tobacco mosaic virus; Nicotiana tabacum. As for the experimental part:
as §1
Nicotiana tabacum plants were used as a source of plant tissue in which TMV is spread systemically.
(a) Root application: N. tabacum plants were removed from their pots and transferred into 50 ml tubes containing 10 ml of 10 mM HEPES-KOH, pH 7.6, and the antiviral dinucleotides. Two hr later, plants were transferred into 50 ml tubes lacking the antiviral compound and were inoculated by TMV as described above. Twenty-four hr later leaves were homogenized in 0.01M sodium phosphate buffer, pH 7.6, (1 g leaves/3 ml buffer) and TMV content was determined by ELISA.
as §2, §3, §4, §5, §6
In order to establish the relationship of the induced resistance to the N-gene for viral localization and to the transmission ability of the compounds, a comparison between leaf application and root application of antiviral dinucleotides to N. tabacum plants was made. N. tabacum plants were removed into vials containing 10 ml of 10 mM HEPES-KOH, pH 7.6, and 1 μM of antiviral dinucleotide. The plant roots were allowed to remain in the solutions for 2 hr and then were transferred to vials containing the buffer without the antiviral compounds.
The plants then were infected with TMV as above. (See section 4. Antiviral activity on N. tabacum intact plants, paragraph [a].) Another group of N. tabacum plants was tested as described in the above-noted section, paragraph (b).

[4] abbreviates: 10 nM (10^-8 M), non-treated half-leaf.
Setting [5] is: 10 nM (10^-8 M), treated half-leaf.
Where [6] appears, read: 100 nM (10^-7 M), non-treated half-leaf.
Where [7] appears, read: 100 nM (10^-7 M), treated half-leaf.
Setting [8] is: 1000 nM (10^-6 M), non-treated half-leaf.
The mark [9] stands for this setting: 1000 nM (10^-6 M), treated half-leaf.

SMILES strings stand for the structures.

For orientation: inhibition means the change of the read-out against control, counted positive when it falls. `Nc1ncnc2c1ncn2[C@@H]1O[C@H](COP(=O)(O)OP(=O)(O)O[C@H]2[C@@H](O)[C@H](n3cnc4c(N)ncnc43)O[C@@H]2CO)[C@@H](O)[C@H]1O` [A3'pp5'A, adenosine 3',5'-diphospho-adenosine]: the “induced resistance to TMV infection in the non-treated half-leaf” value in assay [1] (in words) was “resulted in an induced resistance to TMV infection even in the non-treated half-leaf”. Also, the “percent protection as compared to control TMV infected leaves” value (“percent protection” below) turned out to be 93% in assay [1] (10^-6 M, non-treated half leaf (Table 5)) and 100% in assay [1] (10^-6 M, treated half leaf (Table 5)). The “inhibition of TMV replication (inhibition of formation of local lesions)” value in assay [1] (N. glutinosa intact plants, in words) is on record as “inhibited the TMV replication”. For the same compound, the “ng TMV/ml” value is on record as 550 ng TMV/ml in assay [2] (2 × 10^-9 M), 200 ng TMV/ml in assay [2] (20 × 10^-9 M) and 150 ng TMV/ml in assay [2] (200 × 10^-9 M). The “effectiveness in inhibiting TMV replication compared with 2',5'-adenylate trimer core” value in assay [2] (TMV-infected discs, in words) is listed as “confer similar antiviral state”. In addition, the inhibition at 0.002 µM in assay [2] (Tobacco mosaic virus, 2 × 10^-9 M (Table 4), read-out: % Inhibition as Related to Control) came out at 0%. The inhibition at 0.02 µM in assay [2] (Tobacco mosaic virus, 20 × 10^-9 M (Table 4), read-out: % Inhibition as Related to Control) amounted to 64%. Moreover, the inhibition at 0.2 µM in assay [2] (Tobacco mosaic virus, 200 × 10^-9 M (Table 4), read-out: % Inhibition as Related to Control) was 73%.

`Nc1ccn([C@@H]2O[C@H](COP(=O)(O)OP(=O)(O)OC[C@H]3O[C@@H](n4cnc5c(N)ncnc54)[C@H](O)[C@@H]3O)[C@@H](O)[C@H]2O)c(=O)n1` [A5'pp5'C, adenosine 5',5'"-p^1,p^2 -diphospho-cytidine]: the “percent protection” value in assay [1] (setting [4]) was 36.1%; in assay [1] (setting [5]), 55.0%; in assay [1] (setting [6]) it was 35.5%; in assay [1] (setting [7]), 51.9%; in assay [1] (setting [8]) it was 32.9%; in assay [1] (setting [9]), 63.5%. Further, the “induced resistance to TMV infection in the non-treated half-leaf” value in assay [1] (in words) is on record as “resulted in an induced resistance to TMV infection even in the non-treated half-leaf”.

`Nc1nc2c(ncn2[C@@H]2O[C@H](COP(=O)(O)OP(=O)(O)OC[C@H]3O[C@@H](n4cnc5c(N)ncnc54)[C@H](O)[C@@H]3O)[C@@H](O)[C@H]2O)c(=O)[nH]1` [A5'pp5'G, adenosine 5',5'"-p^1,p^2 -diphospho-guanosine]: the “suppression (inhibition) of the virus” value in assay [3] (1 μM (10^-6 M), exposure of plant roots) is reported as 98-100%. In addition, the “% Protection” value in assay [3] (1 μM, roots, 2 hr) stood at 98%. The “ng TMV/g of leaves” value in assay [3] (1 μM, roots, 2 hr, control 200) was 4 ng TMV/g of leaves. The “percent protection” value in assay [1] (setting [4]) stood at 59.8%; in assay [1] (setting [5]), 84.8%; in assay [1] (setting [6]), 44.7%; in assay [1] (setting [7]) it was 89.5%; in assay [1] (setting [8]), 100%; in assay [1] (setting [9]), 100%. In assay [1] (in words), the “induced resistance to TMV infection in the non-treated half-leaf” value is reported as “resulted in an induced resistance to TMV infection even in the non-treated half-leaf”.

Consider `Nc1ncnc2c1ncn2[C@@H]1O[C@H](COP(=O)(O)OP(=O)(O)OC[C@H]2O[C@@H](n3ccc(=O)[nH]c3=O)[C@H](O)[C@@H]2O)[C@@H](O)[C@H]1O` [A5'pp5'U, adenosine 5',5'"-p^1,p^2 -diphospho-uridine], for which the “percent protection” value in assay [1] (setting [4]) worked out at 5.2%; in assay [1] (setting [5]), 38.1%; in assay [1] (setting [6]), 0%; in assay [1] (setting [7]), 0%; in assay [1] (setting [8]), 21.0%; in assay [1] (setting [9]) it was 80.2%.

Turning to `Nc1ncnc2c1ncn2[C@@H]1O[C@H](COP(=O)(O)OP(=O)(O)O[C@@H]2[C@H](O)[C@@H](CO)O[C@H]2n2cnc3c(N)ncnc32)[C@@H](O)[C@H]1O` [Adenosine 2',5'-p^1,p^2-diadenosine, adenosine 2',5'-diphospho-adenosine], the “inhibition of TMV replication” value in assay [2] (TMV-infected discs, in words) is reported as “effective inhibitor of TMV replication”. The inhibition at 1 µM in assay [2] (Tobacco mosaic virus, 10^-6 M (Table 6), read-out: % Inhibition as related to control) is 42%. For the same compound, in assay [2] (Tobacco mosaic virus, 10^-7 M (Table 6), read-out: % Inhibition as related to control), the inhibition at 0.1 µM is 37%. Further, in assay [2] (Tobacco mosaic virus, 10^-8 M (Table 6), read-out: % Inhibition as related to control), the inhibition at 0.01 µM is 26.4%. The inhibition at 0.001 µM in assay [2] (Tobacco mosaic virus, 10^-9 M (Table 6), read-out: % Inhibition as related to control) was found to be 21%. In addition, the inhibition at 0.0001 µM in assay [2] (Tobacco mosaic virus, 10^-10 M (Table 6), read-out: % Inhibition as related to control) was 0%.

Consider `Nc1ncnc2c1ncn2[C@@H]1O[C@H](COP(=O)(O)OP(=O)(O)OC[C@H]2O[C@@H](n3cnc4c(N)ncnc43)[C@@H]3OP(=O)(O)O[C@@H]32)[C@H]2OP(=O)(O)O[C@H]21` [P<A5'PP5'A>P, 2',3'-cyclic phospho-diadenosine 5',5'"-p^1,p^2-diphosphate], for which the “antiviral activity/potency on structural modification” value in assay [2] (in words, compared to dinucleotides with 2 and 3 internal phosphates) is on record as “did not decrease their antiviral potency”.
